Test results taken from BigSolDB 2.1.

Molecule `Cn1c([N+](=O)[O-])cnc1N1CCN(S(C)(=O)=O)C1=O` has a solubility (mole fraction) (in 1,4-butanediol, 293.2 K) of 0.000939, a solubility (mole fraction) (in 1,4-butanediol, 298.2 K) of 0.00132 and a solubility (mole fraction) (in 1,4-butanediol, 303.2 K) of 0.00176. The solubility (mole fraction) (in 1,4-butanediol, 308.2 K) was 0.0024, the solubility (mole fraction) (in 1,4-butanediol, 313.2 K) was 0.00315 and the solubility (mole fraction) (in 1,4-dioxane, 293.2 K) was 0.00814. The solubility (mole fraction) (in 1,4-dioxane, 298.2 K) was 0.0106, the solubility (mole fraction) (in 1,4-dioxane, 303.2 K) was 0.0127 and the solubility (mole fraction) (in 1,4-dioxane, 308.2 K) was 0.0158. The solubility (mole fraction) (in 1,4-dioxane, 313.2 K) was 0.0189, the solubility (mole fraction) (in DMAc, 293.2 K) was 0.0363 and the solubility (mole fraction) (in DMAc, 298.2 K) was 0.0481. The solubility (mole fraction) (in DMAc, 303.2 K) was 0.0617, the solubility (mole fraction) (in DMAc, 308.2 K) was 0.0765 and the solubility (mole fraction) (in DMAc, 313.2 K) was 0.0963. It also gave a solubility (mole fraction) (in DMF, 293.2 K) of 0.0406, a solubility (mole fraction) (in DMF, 298.2 K) of 0.0542 and a solubility (mole fraction) (in DMF, 303.2 K) of 0.0683. For the same molecule, the solubility (mole fraction) (in DMF, 308.2 K) was 0.083, the solubility (mole fraction) (in DMF, 313.2 K) was 0.103 and the solubility (mole fraction) (in DMSO, 293.2 K) was 0.057. For the same molecule, the solubility (mole fraction) (in DMSO, 298.2 K) was 0.0702, the solubility (mole fraction) (in DMSO, 303.2 K) was 0.085 and the solubility (mole fraction) (in DMSO, 308.2 K) was 0.0987. The solubility (mole fraction) (in DMSO, 313.2 K) was 0.114, the solubility (mole fraction) (in NMP, 293.2 K) was 0.0796 and the solubility (mole fraction) (in NMP, 298.2 K) was 0.116. It also gave a solubility (mole fraction) (in NMP, 303.2 K) of 0.181, a solubility (mole fraction) (in NMP, 308.2 K) of 0.262 and a solubility (mole fraction) (in NMP, 313.2 K) of 0.366. The solubility (mole fraction) (in PEG-200, 293.2 K) was 0.00829, the solubility (mole fraction) (in PEG-200, 298.2 K) was 0.011 and the solubility (mole fraction) (in PEG-200, 303.2 K) was 0.0153. For the same molecule, the solubility (mole fraction) (in PEG-200, 308.2 K) was 0.0205, the solubility (mole fraction) (in PEG-200, 313.2 K) was 0.0271 and the solubility (mole fraction) (in PEG-400, 293.2 K) was 0.0123. It also gave a solubility (mole fraction) (in PEG-400, 298.2 K) of 0.0176, a solubility (mole fraction) (in PEG-400, 303.2 K) of 0.0247 and a solubility (mole fraction) (in PEG-400, 308.2 K) of 0.0343. For the same molecule, the solubility (mole fraction) (in PEG-400, 313.2 K) was 0.0462, the solubility (mole fraction) (in PEG-600, 293.2 K) was 0.015 and the solubility (mole fraction) (in PEG-600, 298.2 K) was 0.0218. The solubility (mole fraction) (in PEG-600, 303.2 K) was 0.0302, the solubility (mole fraction) (in PEG-600, 308.2 K) was 0.0429 and the solubility (mole fraction) (in PEG-600, 313.2 K) was 0.058. For the same molecule, the solubility (mole fraction) (in ethanol, 293.2 K) was 0.000378, the solubility (mole fraction) (in ethanol, 298.2 K) was 0.00048 and the solubility (mole fraction) (in ethanol, 303.2 K) was 0.000582. For the same molecule, the solubility (mole fraction) (in ethanol, 308.2 K) was 0.000726, the solubility (mole fraction) (in ethanol, 313.2 K) was 0.000851 and the solubility (mole fraction) (in ethylene glycol, 293.2 K) was 0.000879. The solubility (mole fraction) (in ethylene glycol, 298.2 K) was 0.00149, the solubility (mole fraction) (in ethylene glycol, 303.2 K) was 0.00228 and the solubility (mole fraction) (in ethylene glycol, 308.2 K) was 0.00358. It also gave a solubility (mole fraction) (in ethylene glycol, 313.2 K) of 0.00558, a solubility (mole fraction) (in formamide, 293.2 K) of 0.0476 and a solubility (mole fraction) (in formamide, 298.2 K) of 0.0591. The solubility (mole fraction) (in formamide, 303.2 K) was 0.0771, the solubility (mole fraction) (in formamide, 308.2 K) was 0.0938 and the solubility (mole fraction) (in formamide, 313.2 K) was 0.109. For the same molecule, the solubility (mole fraction) (in glycerin, 293.2 K) was 0.000743, the solubility (mole fraction) (in glycerin, 298.2 K) was 0.000861 and the solubility (mole fraction) (in glycerin, 303.2 K) was 0.000984. It also gave a solubility (mole fraction) (in glycerin, 308.2 K) of 0.00114, a solubility (mole fraction) (in glycerin, 313.2 K) of 0.00128 and a solubility (mole fraction) (in isopropanol, 293.2 K) of 0.000315. For the same molecule, the solubility (mole fraction) (in isopropanol, 298.2 K) was 0.000368, the solubility (mole fraction) (in isopropanol, 303.2 K) was 0.000447 and the solubility (mole fraction) (in isopropanol, 308.2 K) was 0.000527. The solubility (mole fraction) (in isopropanol, 313.2 K) was 0.000659, the solubility (mole fraction) (in methanol, 293.2 K) was 0.000481 and the solubility (mole fraction) (in methanol, 298.2 K) was 0.000539. It also gave a solubility (mole fraction) (in methanol, 303.2 K) of 0.000624, a solubility (mole fraction) (in methanol, 308.2 K) of 0.000739 and a solubility (mole fraction) (in methanol, 313.2 K) of 0.000871. It also gave a solubility (mole fraction) (in n-propanol, 293.2 K) of 0.000356, a solubility (mole fraction) (in n-propanol, 298.2 K) of 0.000436 and a solubility (mole fraction) (in n-propanol, 303.2 K) of 0.000541. It also gave a solubility (mole fraction) (in n-propanol, 308.2 K) of 0.000673, a solubility (mole fraction) (in n-propanol, 313.2 K) of 0.000832 and a solubility (mole fraction) (in propylene glycol, 293.2 K) of 0.00136. The solubility (mole fraction) (in propylene glycol, 298.2 K) was 0.00232, the solubility (mole fraction) (in propylene glycol, 303.2 K) was 0.00347 and the solubility (mole fraction) (in propylene glycol, 308.2 K) was 0.00538. For the same molecule, the solubility (mole fraction) (in propylene glycol, 313.2 K) was 0.00836, the solubility (mole fraction) (in water, 293.2 K) was 2.86e-06 and the solubility (mole fraction) (in water, 298.2 K) was 3.21e-06. For the same molecule, the solubility (mole fraction) (in water, 303.2 K) was 3.66e-06, the solubility (mole fraction) (in water, 308.2 K) was 4.24e-06 and the solubility (mole fraction) (in water, 313.2 K) was 5.06e-06.
